Experimental data reported in US7531568B2, “PPAR active compounds” (Plexxikon, Inc., priority 2004, dated 2009).

Assays:
PPARδ [1] = target: T1, PPARδ (Homo sapiens, UniProt Q03181); assay: homogenous Alpha screen assay, agonist mode, coactivator Biotin-PGC-1 peptide recruitment; assay type: biochemical; settings: His-tagged PPAR-LBD 10 nM, 25 nM biotin-PGC-1 peptide, 1 hour room temperature; read-out: EC50 with respect to PPARδ
T1 construct: P1057. pET BAM6 PPARD G165-Y441-X; made in house; host or cells: E. coli BL21(DE3)RIL
T1 sequence (Q03181 with tags, fused parts or gaps): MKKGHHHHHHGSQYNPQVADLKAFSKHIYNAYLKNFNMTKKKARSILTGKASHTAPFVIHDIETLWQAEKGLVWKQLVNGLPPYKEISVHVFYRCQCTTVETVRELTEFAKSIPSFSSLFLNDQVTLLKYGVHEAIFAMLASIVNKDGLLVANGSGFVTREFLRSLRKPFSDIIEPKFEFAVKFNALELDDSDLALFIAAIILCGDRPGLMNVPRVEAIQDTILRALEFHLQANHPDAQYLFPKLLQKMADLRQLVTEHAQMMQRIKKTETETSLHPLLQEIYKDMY
Description: (§1) Plasmids encoding the Ligand-binding domains (LBDs) of PPARα, PPARγ, and PPARδ were engineered using common polymerase chain reaction (PCR) methods (pGal4-PPARα-LBD, pGal4-PPARγ-LBD, pGal4-PPARδ-LBD). The relevant DNA sequences and encoded protein sequences used in the assay are shown for each (see below). Complementary DNA cloned from various human tissues was purchased from Invitrogen, and these were used as substrates in the PCR reactions. Specific custom synthetic oligonucleotide primers (Invitrogen, see below) were designed to initiate the PCR product, and also to provide the appropriate restriction enzyme cleavage sites for ligation with the plasmids.
For PPARδ protein expression, single colonies were grown for 4 hrs at 37° C. in 200 mL LB media. 16×1 L of fresh TB media in 2.8 L flasks were inoculated with 10 mL of starter culture and grown with constant shaking at 37° C. […] Cells were harvested by centrifugation and pellets frozen at −80° C. until ready for lysis/purification. […]
(§2) The homogenous Alpha screen assay was used in the agonist mode to determine the ligand dependent interaction of the PPARs (α,δ,γ) with the coactivator Biotin-PGC- 1 peptide (biotin-AHX-[…]-CONH2 (SEQ ID NO: 13), supplied by Wyeth). […] The samples were incubated for 1 hour in the dark at room temperature before taking the reading in the Fusion alpha or Alpha Quest reader. […]

PPARγ = target: T2, PPARγ (Homo sapiens, UniProt P37231); assay: as above; assay type: biochemical; settings: His-tagged PPAR-LBD 20 nM, 25 nM biotin-PGC-1 peptide, 1 hour room temperature; read-out: EC50 with respect to PPARγ
T2 sequence (P37231 with tags, fused parts or gaps): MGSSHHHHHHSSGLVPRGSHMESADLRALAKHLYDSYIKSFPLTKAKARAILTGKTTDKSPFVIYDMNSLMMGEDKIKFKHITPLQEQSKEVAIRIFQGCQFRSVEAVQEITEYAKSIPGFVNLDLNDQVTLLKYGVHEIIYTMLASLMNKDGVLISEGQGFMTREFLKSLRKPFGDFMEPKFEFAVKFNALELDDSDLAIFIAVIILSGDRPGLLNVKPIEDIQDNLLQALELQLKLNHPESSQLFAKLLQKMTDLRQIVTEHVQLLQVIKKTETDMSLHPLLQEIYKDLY
Description: as §1
For protein expression, plasmids containing genes of interest were transformed into E. coli strain BL21(DE3)RIL (Invitrogen) and transformants selected for growth on LB agar plates containing appropriate antibiotics. Single colonies were grown for 4 hrs at 37° C. in 200 ml LB media. […]. […]
as §2

murine PPARα = target: T3, murine PPARα (Mus musculus, UniProt P23204); settings: cited from earlier work
T3 sequence (P23204 1-468): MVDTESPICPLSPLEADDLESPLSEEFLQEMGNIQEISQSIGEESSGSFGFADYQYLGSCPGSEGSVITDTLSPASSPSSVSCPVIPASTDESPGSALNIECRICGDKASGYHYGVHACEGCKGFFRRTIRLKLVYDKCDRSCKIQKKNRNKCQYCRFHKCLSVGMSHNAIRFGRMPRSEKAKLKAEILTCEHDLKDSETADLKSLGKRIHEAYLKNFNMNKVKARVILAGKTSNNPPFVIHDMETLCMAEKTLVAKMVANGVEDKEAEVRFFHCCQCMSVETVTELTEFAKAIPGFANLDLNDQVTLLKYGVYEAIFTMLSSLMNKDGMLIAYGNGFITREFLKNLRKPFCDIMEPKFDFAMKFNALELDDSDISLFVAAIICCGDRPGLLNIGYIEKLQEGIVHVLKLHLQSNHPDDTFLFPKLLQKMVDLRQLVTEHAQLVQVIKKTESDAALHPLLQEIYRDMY

PPARδ [2] = target: T4, PPARδ (Homo sapiens, UniProt Q03181); settings: cited from earlier work
T4 sequence (Q03181 1-441): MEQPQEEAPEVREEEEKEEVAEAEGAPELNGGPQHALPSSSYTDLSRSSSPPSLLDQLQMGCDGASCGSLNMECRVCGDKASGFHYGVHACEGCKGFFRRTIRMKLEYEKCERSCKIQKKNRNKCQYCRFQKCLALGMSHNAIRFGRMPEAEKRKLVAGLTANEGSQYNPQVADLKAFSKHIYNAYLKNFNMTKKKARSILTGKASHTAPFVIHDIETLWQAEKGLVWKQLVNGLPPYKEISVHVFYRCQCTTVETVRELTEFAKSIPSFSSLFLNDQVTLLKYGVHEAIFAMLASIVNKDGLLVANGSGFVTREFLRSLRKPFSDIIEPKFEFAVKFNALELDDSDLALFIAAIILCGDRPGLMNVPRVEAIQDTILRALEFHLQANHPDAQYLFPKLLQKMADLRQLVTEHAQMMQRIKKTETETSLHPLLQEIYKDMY

[3] = recent large prospective trial; cited from earlier work

Structure (SMILES): COc1ccc2c(c1)c(SCC(=O)O)cn2S(=O)(=O)c1ccc(Cl)c(Cl)c1 [Compound 27, [1-(3,4-dichloro-benzenesulfonyl)-5-methoxy-1H-indol-3-ylsulfanyl]-acetic acid]
- EC50 (PPARδ [1]): < 1000 nM
- EC50 (PPARγ): < 1000 nM

Structure (SMILES): CCCc1c(OCCCOc2ccc(OCC(=O)O)cc2)ccc(C(C)=O)c1O [Compound L-165041]
- activity on murine PPARα (murine PPARα): inactive
- agonist selectivity for PPARδ over PPARγ (PPARδ [2]): approximately 30 fold

Structure (SMILES): Cc1ccc(C)c(OCCCC(C)(C)C(=O)O)c1 [gemfibrozil]
- reduction in cardiovascular events or death [3]: 22%
